Test results as given in US11154529B2, “Phosphaplatin liquid formulations” (Phosplatin Therapeutics Inc., priority 2016, dated 2021).

Experiment: Ready-to-use formulation stability at 25° C./60% RH, 5 mg/mL (R,R)-pyrodach-2 in 10 mM Potassium Phosphate Buffer at pH 7.2, 10 mL vials
Type: physicochemical
Procedure: A scalable and commercially viable process for the manufacture of a ready-to-use formulation of (R,R)-pyrodach-2 in 10 mM buffer adjusted to a pH of 7.0-7.5 comprises the steps of: a) preparing a 10 mM aqueous solution of buffer; b) adding sufficient hydroxide base to effect neutralization of the added (R,R)-pyrodach-2 to reach a pH of about 7; c) adding (R,R)-pyrodach-2 and allowing it to dissolve; d) if necessary adding additional hydroxide to adjust the pH into a range of about 7.0-7.5; and e) filtering the solution under sterile conditions, filling the solution into glass vials, and covering it with a stopper and/or a cap. Stability data on two large batches of 5 mg/mL (R,R)-pyrodach-2 in 10 mM potassium phosphate buffer were generated. One such batch at pH=7.2 was evaluated at both 25° C./60% RH and refrigerated (2-8° C.) conditions, with data summarized in Table 4 and Table 5, respectively. […] Similar observations have been made for the ready-to-use liquid formulation at pH7.4, as illustrated in Table 6 and Table 7.
• Transfer 4564.6 mg±0.5 mg of potassium phosphate dibasic, trihydrate to a 2-L volumetric flask. • Fill flask to approximately 75% volume with water, swirl as needed to dissolve all solids. • Volumetrically transfer 32.0 mL of 1N KOH to flask. • Dilute flask to volume with water and mix well. • Record pH of final solution. This is the diluent. • Transfer 7653.1 mg±0.5 mg of (R,R)-pyrodach-2 to a compounding vessel. • Transfer 1500 mL of the diluent to the vessel and stir to dissolve solids. • Record pH of final solution. • Pass entire solution through a 0.22 μm sterile filter membrane into a sterile collection vessel. • Calculate (R,R)-pyrodach-2 solution concentration
To a […] glass beaker equipped with mechanical mixer was add 24645.5 g of sterile water for injection. With agitation 47.03 gm of dibasic potassium phosphate USP was added and the solids allowed to dissolve. To the stirred solution was added 253.8 gm of 1.00 N potassium hydroxide. Sterile water for injection USP (900.0 gm) was used as a rinse to facilitate both additions. With vigorous agitation, (R,R)-pyrodach-2 (201.87 gm) was slowly added and agitation continued until all of the solids dissolved. Sterile water for injection USP (900.0 gm) was used as a rinse to facilitate the addition. The pH was determined to be 6.7. A total of 85 mL of 1.00 N potassium hydroxide was added in 5.0 mL aliquots to adjust the pH to 7.3. The solution was sterile filtered through 0.22μ Millipore Millipack filter and aseptically filled, 10 ml top a vial in 10 mL in 10 cc Wheaton clear molded vails, stoppered with a 20 mm stopper and crimp seal capped.

With O=P1(O)OP(=O)(O)[O][Pt]2([NH][C@@H]3CCCC[C@H]3[NH]2)[O]1 (stereo partly drawn) [(R,R)-pyrodach-2, (R,R)-trans-1,2-cyclohexanediamine-(dihydrogenpyrophosphato)platinum(II)] the “(DACH) Pt-diaquo (~RRT 0.3)” value (1 Month) was 0.15%, the “(DACH) Pt-monoaquo (~RRT 0.7)” value (1 Month) was 0.75% and the “Assay (Potency)” value (1 Month) was 96.5%. The “PT-112 Dimer (~RRT 4.0)” value (1 Month) was 0.33%, the “RRT 0.58” value (1 Month) was 0.13% and the “RRT 0.67” value (1 Month) was 0.06%. For the same molecule, the “RRT 3.1-3.2” value (1 Month) was 0.22%, the “Total Related Substances” value (1 Month) was 2% and the pH (1 Month) was 7.2. The “(DACH) Pt-diaquo (~RRT 0.3)” value (2 Month) was 0.09%, the “(DACH) Pt-monoaquo (~RRT 0.7)” value (2 Month) was 0.96% and the “Assay (Potency)” value (2 Month) was 99.5%. For the same molecule, the “PT-112 Dimer (~RRT 4.0)” value (2 Month) was 0.36%, the “RRT 0.50” value (2 Month) was 0.05% and the “RRT 0.58” value (2 Month) was 0.15%. For the same molecule, the “RRT 0.67” value (2 Month) was 0.09%, the “RRT 3.1-3.2” value (2 Month) was 0.32% and the “RRT 3.65” value (2 Month) was 0.08%. The “Total Related Substances” value (2 Month) was 2%, the pH (2 Month) was 7.2 and the “(DACH) Pt-diaquo (~RRT 0.3)” value (3 Month) was 0.19%. For the same molecule, the “(DACH) Pt-monoaquo (~RRT 0.7)” value (3 Month) was 0.73%, the “Assay (Potency)” value (3 Month) was 98.2% and the “PT-112 Dimer (~RRT 4.0)” value (3 Month) was 0.37%. For the same molecule, the “RRT 0.50” value (3 Month) was 0.08%, the “RRT 0.58” value (3 Month) was 0.18% and the “RRT 0.67” value (3 Month) was 0.06%. The “RRT 3.1-3.2” value (3 Month) was 0.37%, the “RRT 3.65” value (3 Month) was 0.11% and the “Total Related Substances” value (3 Month) was 2%. For the same molecule, the pH (3 Month) was 7.3, the “(DACH) Pt-diaquo (~RRT 0.3)” value (4 Month) was 0.13% and the “(DACH) Pt-monoaquo (~RRT 0.7)” value (4 Month) was 1.05%. For the same molecule, the “Assay (Potency)” value (4 Month) was 97.9%, the “PT-112 Dimer (~RRT 4.0)” value (4 Month) was 0.36% and the “RRT 0.50” value (4 Month) was 0.09%. For the same molecule, the “RRT 0.58” value (4 Month) was 0.20%, the “RRT 0.67” value (4 Month) was 0.07% and the “RRT 3.1-3.2” value (4 Month) was 0.38%. The “RRT 3.46” value (4 Month) was 0.05%, the “RRT 3.65” value (4 Month) was 0.13% and the “Total Related Substances” value (4 Month) was 2%. The pH (4 Month) was 7.1, the “(DACH) Pt-diaquo (~RRT 0.3)” value (6 Month) was 0.15% and the “(DACH) Pt-monoaquo (~RRT 0.7)” value (6 Month) was 1.03%. For the same molecule, the “Assay (Potency)” value (6 Month) was 97.5%, the “PT-112 Dimer (~RRT 4.0)” value (6 Month) was 0.37% and the “RRT 0.50” value (6 Month) was 0.15%. For the same molecule, the “RRT 0.58” value (6 Month) was 0.21%, the “RRT 0.67” value (6 Month) was 0.07% and the “RRT 0.86” value (6 Month) was 0.05%. For the same molecule, the “RRT 3.1-3.2” value (6 Month) was 0.40%, the “RRT 3.65” value (6 Month) was 0.24% and the “RRT 4.97” value (6 Month) was 0.05%. For the same molecule, the “Total Related Substances” value (6 Month) was 3%, the pH (6 Month) was 7.2 and the “Particulate Matter (Light Obscuration)” value (6 Month, first value) was 20 particles particles per container. The “Particulate Matter (Light Obscuration)” value (6 Month, second value) was 3 particles particles per container, the “(DACH) Pt-diaquo (~RRT 0.3)” value (9 Month) was 0.16% and the “(DACH) Pt-monoaquo (~RRT 0.7)” value (9 Month) was 1.10%. For the same molecule, the “Assay (Potency)” value (9 Month) was 96.8%, the “PT-112 Dimer (~RRT 4.0)” value (9 Month) was 0.39% and the “RRT 0.50” value (9 Month) was 0.19%. For the same molecule, the “RRT 0.58” value (9 Month) was 0.27%, the “RRT 0.67” value (9 Month) was 0.10% and the “RRT 0.86” value (9 Month) was 0.05%. For the same molecule, the “RRT 3.1-3.2” value (9 Month) was 0.30%, the “RRT 3.65” value (9 Month) was 0.39% and the “RRT 4.97” value (9 Month) was 0.08%. For the same molecule, the “Total Related Substances” value (9 Month) was 3%, the pH (9 Month) was 7.2 and the “(DACH) Pt-diaquo (~RRT 0.3)” value (12 Month) was 0.18%. The “(DACH) Pt-monoaquo (~RRT 0.7)” value (12 Month) was 0.91%, the “Assay (Potency)” value (12 Month) was 96.8% and the “PT-112 Dimer (~RRT 4.0)” value (12 Month) was 0.33%. For the same molecule, the “RRT 0.41” value (12 Month) was 0.05%, the “RRT 0.50” value (12 Month) was 0.26% and the “RRT 0.58” value (12 Month) was 0.26%. For the same molecule, the “RRT 0.67” value (12 Month) was 0.13%, the “RRT 0.86” value (12 Month) was 0.05% and the “RRT 3.1-3.2” value (12 Month) was 0.44%. For the same molecule, the “RRT 3.65” value (12 Month) was 0.52%, the “RRT 4.97” value (12 Month) was 0.20% and the “Total Related Substances” value (12 Month) was 3%. The pH (12 Month) was 7.2, the “Particulate Matter (Light Obscuration)” value (12 Month, first value) was 36 particles particles per container and the “Particulate Matter (Light Obscuration)” value (12 Month, second value) was 2 particles particles per container. The “(DACH) Pt-diaquo (~RRT 0.3)” value (15 Month) was 0.14%, the “(DACH) Pt-monoaquo (~RRT 0.7)” value (15 Month) was 0.84% and the “Assay (Potency)” value (15 Month) was 98.1%. For the same molecule, the “PT-112 Dimer (~RRT 4.0)” value (15 Month) was 0.29%, the “RRT 0.41” value (15 Month) was 0.07% and the “RRT 0.50” value (15 Month) was 0.37%. The “RRT 0.58” value (15 Month) was 0.26%, the “RRT 0.67” value (15 Month) was 0.07% and the “RRT 3.1-3.2” value (15 Month) was 0.41%. For the same molecule, the “RRT 3.65” value (15 Month) was 0.63%, the “RRT 4.97” value (15 Month) was 0.28% and the “Total Related Substances” value (15 Month) was 3%. The pH (15 Month) was 7.3, the “(DACH) Pt-diaquo (~RRT 0.3)” value (18 Month) was 0.14% and the “(DACH) Pt-monoaquo (~RRT 0.7)” value (18 Month) was 1.04%. The “Assay (Potency)” value (18 Month) was 99.0%, the “PT-112 Dimer (~RRT 4.0)” value (18 Month) was 0.30% and the “RRT 0.41” value (18 Month) was 0.06%. The “RRT 0.50” value (18 Month) was 0.36%, the “RRT 0.58” value (18 Month) was 0.29% and the “RRT 0.67” value (18 Month) was 0.11%. The “RRT 0.86” value (18 Month) was 0.14%, the “RRT 3.1-3.2” value (18 Month) was 0.40% and the “RRT 3.65” value (18 Month) was 0.75%. The “RRT 4.97” value (18 Month) was 0.43%, the “Total Related Substances” value (18 Month) was 4% and the pH (18 Month) was 7.2. The “(DACH) Pt-diaquo (~RRT 0.3)” value (24 Month) was 0.15%, the “(DACH) Pt-monoaquo (~RRT 0.7)” value (24 Month) was 0.83% and the “Assay (Potency)” value (24 Month) was 97.5%. The “PT-112 Dimer (~RRT 4.0)” value (24 Month) was 0.36%, the “RRT 0.41” value (24 Month) was 0.12% and the “RRT 0.46” value (24 Month) was 0.10%. The “RRT 0.50” value (24 Month) was 0.70%, the “RRT 0.58” value (24 Month) was 0.17% and the “RRT 0.67” value (24 Month) was 0.07%. The “RRT 3.1-3.2” value (24 Month) was 0.41%, the “RRT 3.46” value (24 Month) was 0.07% and the “RRT 3.65” value (24 Month) was 1.24%. For the same molecule, the “RRT 4.97” value (24 Month) was 0.73%, the “Total Related Substances” value (24 Month) was 5% and the pH (24 Month) was 7.2. For the same molecule, the “Particulate Matter (Light Obscuration)” value (24 Month, first value) was 81 particles particles per container, the “Particulate Matter (Light Obscuration)” value (24 Month, second value) was 4 particles particles per container and the “(DACH) Pt-diaquo (~RRT 0.3)” value (Initial) was 0.16%. For the same molecule, the “(DACH) Pt-monoaquo (~RRT 0.7)” value (Initial) was 0.98%, the “Assay (Potency)” value (Initial) was 99.8% and the “PT-112 Dimer (~RRT 4.0)” value (Initial) was 0.19%. The “RRT 0.58” value (Initial) was 0.13%, the “RRT 0.67” value (Initial) was 0.05% and the “Total Related Substances” value (Initial) was 2%. For the same molecule, the pH (Initial) was 7.2, the “Particulate Matter (Light Obscuration)” value (Initial, first value) was 219 particles particles per container and the “Particulate Matter (Light Obscuration)” value (Initial, second value) was 11 particles particles per container.
